The test deals with Ceritinib resistant MGH049 cells. Description: Cell colony formation assay with ceritinib resistant MGH049 cells.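 Note: tested compounds are SHP2 inhibitors given alone, colonies fixed and crystal violet stained, DMSO reference taken as the mean of six readings.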 The format is cell-based, human. The settings on record: Homo sapiens, 168 h; compound of Table 1 (3 μM) alone, 7 days; normalized to DMSO without compound = 100; read-out: Normalized Crystal Violet abs. (590 nm) DMSO.

As for `C[C@H]1C[C@@H](N)C2(CCN(c3nc(N)c(-c4cccc(Cl)c4Cl)c(=O)n3C)CC2)C1` [compound 29, 6-amino-2-((1R,3R)-1-amino-3-methyl-8-azaspiro[4.5]decan-8-yl)-5-(2,3-dichlorophenyl)-3-methylpyrimidin-4(3H)-one], the activity at 3 µM was found to be 25.1%.

For the compound `C[C@H]1C[C@@H](N)C2(CCN(c3nc(N)c(-c4ccccc4)c(=O)n3C)CC2)C1` [compound 36, 6-amino-2-((1R,3R)-1-amino-3-methyl-8-azaspiro[4.5]decan-8-yl)-3-methyl-5-phenylpyrimidin-4(3H)-one], the activity at 3 µM was found to be 23.8%.

In the case of `NCC1(c2ccccc2)CCN(c2cnc(-c3cccc(Cl)c3Cl)c(N)n2)CC1` [compound 2, 6-(4-(aminomethyl)-4-phenylpiperidin-1-yl)-3-(2,3-dichlorophenyl)pyrazin-2-amine], the activity at 3 µM was determined as 67%.

Take `COc1nccc(-c2c[nH]c3nc(N4CCC5(CC4)CO[C@@H](C)[C@H]5N)n(C)c(=O)c23)c1Cl` [compound 43, 2-((3S,4S)-4-amino-3-methyl-2-oxa-8-azaspiro[4.5]decan-8-yl)-5-(3-chloro-2-methoxypyridin-4-yl)-3-methyl-3,7-dihydro-4H-pyrrolo[2,3-d]pyrimidin-4-one]: the activity at 3 µM came to 95.6%.

As for `Cn1c(N2CCC3(CC2)CC(F)(F)C[C@H]3N)nc(N)c(Sc2ccnc(N)c2Cl)c1=O` [compound 33, (R)-6-amino-2-(1-amino-3,3-difluoro-8-azaspiro[4.5]decan-8-yl)-5-((2-amino-3-chloropyridin-4-yl)thio)-3-methylpyrimidin-4(3H)-one], the activity at 3 µM was determined as 73.3%.

Regarding `Nc1nc(N2CCC3(CCC[C@H]3N)CC2)cnc1Sc1cccc(NC(=O)c2c(O)nc3n(c2=O)CCCC3)c1Cl` [compound 47, (R)-N-(3-((3-amino-5-(1-amino-8-azaspiro[4.5]decan-8-yl)pyrazin-2-yl)thio)-2-chlorophenyl)-2-hydroxy-4-oxo-6,7,8,9-tetrahydro-4H-pyrido[1,2-a]pyrimidine-3-carboxamide], the activity at 3 µM stood at 14.8%.

For the compound `CC1(CN)CCN(c2cnc(Sc3cccc(NC(=O)c4c(O)nc5ccccn5c4=O)c3Cl)c(N)n2)CC1` [compound 50, N-(3-((3-amino-5-(4-(aminomethyl)-4-methylpiperidin-1-yl)pyrazin-2-yl)thio)-2-chlorophenyl)-2-hydroxy-4-oxo-4H-pyrido[1,2-a]pyrimidine-3-carboxamide], the activity at 3 µM is 98.9%.

Regarding `CC1(N)CCN(c2cnc(Sc3cccc(NC(=O)c4c(O)nc5ccccn5c4=O)c3Cl)c(N)n2)CC1` [Compound No. 44, N-(3-((3-amino-5-(4-amino-4-methylpiperidin-1-yl)pyrazin-2-yl)thio)-2-chlorophenyl)-2-hydroxy-4-oxo-4H-pyrido[1,2-a]pyrimidine-3-carboxamide], the activity at 3 µM is 37%.

As for `C[C@@H]1OCC2(CCN(c3cnc(Sc4cccc(NC(=O)c5c(O)nc6n(c5=O)CCCC6)c4Cl)c(N)n3)CC2)[C@@H]1N` [compound 45, N-(3-((3-amino-5-((3S,4S)-4-amino-3-methyl-2-oxa-8-azaspiro[4.5]decan-8-yl)pyrazin-2-yl)thio)-2-chlorophenyl)-2-hydroxy-4-oxo-6,7,8,9-tetrahydro-4H-pyrido[1,2-a]pyrimidine-3-carboxamide], the activity at 3 µM worked out at 12.1%.

As for `Nc1nc(N2CCC3(CCC[C@H]3N)CC2)cnc1Sc1ccnc(N)c1Cl` [compound 6, (R)-8-(6-amino-5-((2-amino-3-chloropyridin-4-yl)thio)pyrazin-2-yl)-8-azaspiro[4.5]decan-1-amine], the activity at 3 µM was found to be 44.5%.

Turning to `CC[C@@H]1OCC2(CCN(c3nc(N)c(Sc4cccnc4C(F)(F)F)c(=O)n3C)CC2)[C@@H]1N` [compound 31, 6-amino-2-((3S,4S)-4-amino-3-ethyl-2-oxa-8-azaspiro[4.5]decan-8-yl)-3-methyl-5-((2-(trifluoromethyl)pyridin-3-yl)thio)pyrimidin-4(3H)-one], the activity at 3 µM amounted to 36.4%.

Take `C[C@@H]1OCC2(CCN(c3nc(N)c(Sc4cccnc4C(F)(F)F)c(=O)n3C)CC2)[C@@H]1N` [compound 25, 6-amino-2-((3S,4S)-4-amino-3-methyl-2-oxa-8-azaspiro[4.5]decan-8-yl)-3-methyl-5-((2-(trifluoromethyl)pyridin-3-yl)thio)pyrimidin-4(3H)-one]: the activity at 3 µM came out at 52.5%.

Regarding `Nc1nc(N2CCC3(CC2)COC[C@H]3N)cnc1Sc1ccnc(N)c1Cl` [compound 11, (S)-8-(6-amino-5-((2-amino-3-chloropyridin-4-yl)thio)pyrazin-2-yl)-2-oxa-8-azaspiro[4.5]decan-4-amine], the activity at 3 µM worked out at 58.9%.

As for `COc1cccc(Sc2c(N)nc(N3CCC4(CC3)CO[C@@H](C)[C@H]4N)n(C)c2=O)c1Cl` [compound 30, 6-amino-2-((3S,4S)-4-amino-3-methyl-2-oxa-8-azaspiro[4.5]decan-8-yl)-5-((2-chloro-3-methoxyphenyl)thio)-3-methylpyrimidin-4(3H)-one], the activity at 3 µM came to 39.4%.

Regarding `C[C@H]1C[C@@H](N)C2(CCN(c3nc(N)c(-c4ccc(Cl)cc4)c(=O)n3C)CC2)C1` [compound 35, 6-amino-2-((1R,3R)-1-amino-3-methyl-8-azaspiro[4.5]decan-8-yl)-5-(4-chlorophenyl)-3-methylpyrimidin-4(3H)-one], the activity at 3 µM stood at 32.2%.

As to `Nc1nc(N2CCC3(CC2)COC[C@H]3N)cnc1Sc1cccc(NC(=O)c2c(O)nc3n(c2=O)CCCC3)c1Cl` [compound 53, (S)-N-(3-((3-amino-5-(4-amino-2-oxa-8-azaspiro[4.5]decan-8-yl)pyrazin-2-yl)thio)-2-chlorophenyl)-2-hydroxy-4-oxo-6,7,8,9-tetrahydro-4H-pyrido[1,2-a]pyrimidine-3-carboxamide], the activity at 3 µM was 46.5%.

Consider `Nc1nc(N2CCC3(CC2)CC(F)(F)C[C@H]3N)cnc1Sc1cccc(NC(=O)c2c(O)nc3n(c2=O)CCCC3)c1Cl` [compound 49, (R)-N-(3-((3-amino-5-(1-amino-3,3-difluoro-8-azaspiro[4.5]decan-8-yl)pyrazin-2-yl)thio)-2-chlorophenyl)-2-hydroxy-4-oxo-6,7,8,9-tetrahydro-4H-pyrido[1,2-a]pyrimidine-3-carboxamide], for which the activity at 3 µM turned out to be 26.5%.

As for `C[C@@H]1OCC2(CCN(c3nc(N)c(Sc4ccncc4C(F)(F)F)c(=O)n3C)CC2)[C@@H]1N` [compound 34, 6-amino-2-((3S,4S)-4-amino-3-methyl-2-oxa-8-azaspiro[4.5]decan-8-yl)-3-methyl-5-((3-(trifluoromethyl)pyridin-4-yl)thio)pyrimidin-4(3H)-one], the activity at 3 µM was found to be 43.6%.

As for `Nc1nc(N2CCC3(CC2)C[C@@H](O)C[C@H]3N)cnc1Sc1ccnc(Cl)c1Cl` [compound 14, (2R,4R)-4-amino-8-(6-amino-5-((2,3-dichloropyridin-4-yl)thio)pyrazin-2-yl)-8-azaspiro[4.5]decan-2-ol], the activity at 3 µM came to 51.2%.

As for `CC1(CN)CCN(c2cnc(Sc3cccc(NC(=O)c4c(O)nc5n(c4=O)CCCC5)c3Cl)c(N)n2)CC1` [compound 48, N-(3-((3-amino-5-(4-(aminomethyl)-4-methylpiperidin-1-yl)pyrazin-2-yl)thio)-2-chlorophenyl)-2-hydroxy-4-oxo-6,7,8,9-tetrahydro-4H-pyrido[1,2-a]pyrimidine-3-carboxamide], the activity at 3 µM was found to be 52.3%.

For the compound `Cc1nc(N)ccc1-c1[nH]nc2nc(N3CCC4(CC3)C[C@@H](C)C[C@H]4N)n(C)c(=O)c12` [compound 40, 3-(6-amino-2-methylpyridin-3-yl)-6-((1R,3R)-1-amino-3-methyl-8-azaspiro[4.5]decan-8-yl)-5-methyl-2,5-dihydro-4H-pyrazolo[3,4-d]pyrimidin-4-one], the activity at 3 µM was found to be 22.4%.

For `C[C@@H]1OCC2(CCN(c3cnc4c(-c5ccnc(Cl)c5Cl)n[nH]c4n3)CC2)[C@@H]1N` [compound 39, (3S,4S)-8-(3-(2,3-dichloropyridin-4-yl)-1H-pyrazolo[3,4-b]pyrazin-6-yl)-3-methyl-2-oxa-8-azaspiro[4.5]decan-4-amine], the activity at 3 µM is 97.9%.

As to `CC1(CN)CCN(c2nc3[nH]cc(-c4cccc(Cl)c4Cl)c3c(=O)[nH]2)CC1` [compound 38, 2-(4-(aminomethyl)-4-methylpiperidin-1-yl)-5-(2,3-dichlorophenyl)-3,7-dihydro-4H-pyrrolo[2,3-d]pyrimidin-4-one], the activity at 3 µM amounted to 83.9%.

Take `Cc1nc(N)ccc1-c1[nH]nc2nc(N3CCC4(CC3)CC(F)(F)C[C@H]4N)n(C)c(=O)c12` [compound 41, (R)-3-(6-amino-2-methylpyridin-3-yl)-6-(1-amino-3,3-difluoro-8-azaspiro[4.5]decan-8-yl)-5-methyl-2,5-dihydro-4H-pyrazolo[3,4-d]pyrimidin-4-one]: the activity at 3 µM stood at 25.3%.

`C[C@@H]1OCC2(CCN(c3cnc(Sc4ccnc(N)c4Cl)c(N)n3)CC2)[C@@H]1N` [compound 16, (3S,4S)-8-(6-amino-5-((2-amino-3-chloropyridin-4-yl)thio)pyrazin-2-yl)-3-methyl-2-oxa-8-azaspiro[4.5]decan-4-amine]: the activity at 3 µM was 34.4%.

Take `C[C@H]1C[C@@H](N)C2(CCN(c3nc(N)c(Sc4ccncc4C(F)(F)F)c(=O)n3C)CC2)C1` [compound 28, 6-amino-2-((1R,3R)-1-amino-3-methyl-8-azaspiro[4.5]decan-8-yl)-3-methyl-5-((3-(trifluoromethyl)pyridin-4-yl)thio)pyrimidin-4(3H)-one]: the activity at 3 µM was determined as 28.1%.

In the case of `C[C@@H]1OCC2(CCN(c3nc(N)c(Sc4cccc(Cl)c4Cl)c(=O)n3C)CC2)[C@@H]1N` [compound 27, 6-amino-2-((3S,4S)-4-amino-3-methyl-2-oxa-8-azaspiro[4.5]decan-8-yl)-5-((2,3-dichlorophenyl)thio)-3-methylpyrimidin-4(3H)-one], the activity at 3 µM came out at 37.8%.

On to `C[C@@H]1OCC2(CCN(c3nc(N)c(Sc4cccc(N)c4C(F)(F)F)c(=O)n3C)CC2)[C@@H]1N` [compound 32, 6-amino-5-((3-amino-2-(trifluoromethyl)phenyl)thio)-2-((3S,4S)-4-amino-3-methyl-2-oxa-8-azaspiro[4.5]decan-8-yl)-3-methylpyrimidin-4(3H)-one], for which the activity at 3 µM was determined as 58.2%.

The values are drawn from US12053470B2, “Pharmaceutical combination comprising an ALK inhibitor and a SHP2 inhibitor” (Novartis AG, priority 2017, dated 2024).
